Earlier results in patent publication US9457059B2, “Compositions and methods for treating renal failure” (La Jolla Pharmaceutical Company, priority 2013, dated 2016).

Tests used:
[1] = tested on: patients with cirrhosis and ascites
[2] = tested on: patients with cirrhosis and ascites; remark: listed apart in the source

Compound: C[C@H](CS)C(=O)N1CCC[C@H]1C(=O)O [captopril]
- sodium excretion and urinary output [1]: significantly reduced both sodium excretion and urinary output

Compound: Asp-Arg-Val-Tyr-Ile-His-Pro-Phe (DRVYIHPF) [angiotensin II, peptide hormone that regulates blood pressure via vasoconstriction and sodium reabsorption]
- tolerability ([2]; use in patients with cirrhosis and ascites): well-tolerated

Compound: Asp-Arg-Val-Tyr-Ile-His-Pro-Phe [angiotensin II, peptide hormone that regulates blood pressure via vasoconstriction and sodium reabsorption]
- increase in urine output and sodium excretion compared with norepinephrine ([2]; Laragh et al., versus norepinephrine): much more pronounced than those produced by norepinephrine
- natriuresis and urine output ([2]; patients with cirrhosis and ascites, no renal failure): induces marked natriuresis and urine output
- increase in sodium excretion compared with norepinephrine ([2]; second study, Ames et al., versus norepinephrine): greater increase in sodium excretion compared to norepinephrine
